Molecular target: TRPV1 (Homo sapiens, UniProt Q8NER1)
Experiment: cell-based
Protocol: Combine 42 μL of dye mixture with 11 mL of FLIPR buffer/96-well plate.
Laser is adjusted upwards for an average signal≧10,000/well and less than 10% variability.

Chain of TRPV1 (Q8NER1 whole entry, species assumed): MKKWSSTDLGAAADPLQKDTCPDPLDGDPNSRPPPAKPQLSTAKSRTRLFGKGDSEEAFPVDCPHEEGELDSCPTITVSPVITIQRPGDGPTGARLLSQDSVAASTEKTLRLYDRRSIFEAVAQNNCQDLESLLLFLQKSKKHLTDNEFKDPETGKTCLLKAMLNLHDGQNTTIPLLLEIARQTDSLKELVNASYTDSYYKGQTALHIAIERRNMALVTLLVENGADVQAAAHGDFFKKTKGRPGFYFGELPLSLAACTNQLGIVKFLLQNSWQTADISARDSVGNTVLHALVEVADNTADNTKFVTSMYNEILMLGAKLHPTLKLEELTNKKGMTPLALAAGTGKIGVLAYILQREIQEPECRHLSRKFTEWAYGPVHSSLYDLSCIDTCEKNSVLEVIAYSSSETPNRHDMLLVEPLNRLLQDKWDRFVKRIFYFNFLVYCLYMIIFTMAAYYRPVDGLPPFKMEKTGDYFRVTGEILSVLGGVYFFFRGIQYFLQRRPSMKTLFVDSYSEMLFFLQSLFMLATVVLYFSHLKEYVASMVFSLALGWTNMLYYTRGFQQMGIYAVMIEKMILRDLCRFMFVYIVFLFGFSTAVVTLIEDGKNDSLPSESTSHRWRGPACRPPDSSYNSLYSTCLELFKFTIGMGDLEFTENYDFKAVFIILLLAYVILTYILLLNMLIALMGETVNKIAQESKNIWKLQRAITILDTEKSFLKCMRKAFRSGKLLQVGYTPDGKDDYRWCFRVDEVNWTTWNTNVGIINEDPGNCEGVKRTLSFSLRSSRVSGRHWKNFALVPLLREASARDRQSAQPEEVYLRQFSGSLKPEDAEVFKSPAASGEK

IC50: ~500 nM
Compound: Oc1cc2c(cc1O)CN(C(=S)NCCc1ccc(Cl)cc1)CCC2 [capsazepine]
